# Data reported in patent US8609419B2, “Method for inserting a nucleic acid of interest into a prokaryotic or eukaryotic cell by homologous recombination” (Centre National de la Recherche Scientifique, priority 2002, dated 2013).
# System: Escherichia coli cell genome
# Test: Targeted insertion of lacZ::kan by homologous recombination from N-AcO-AAF-treated pCUL-lacZ::kan plasmid (white/total colonies)
# Format: cell-based
# Settings: for Recombination frequency: white colonies/total colonies / Total number of colonies/number of recombined colonies: E. coli
# Protocol: Reaction mixture • Plasmid DNA: Final concentration of 0.5 μg/μl in 2×10^−3 M citrate buffer, pH 7 • N-AcO-AAF: Final concentration of 400 μg/ml in ethanol.
# 60 μg DNA are added in 114 μl of 2×10^−3 M citrate buffer, pH7, added with 3 μl of ethanol at 100%.
# The solution is preheated at 37° C.; then 3 μl of N-AcO-AAF (400 μg/ml) are added, marked with tritium (^3H).
# Reaction time: 4, 8, 20 minutes.
# 40 μl are taken at the various selected times. The reaction is stopped by a DNA precipitation step with 3 volumes of ethanol/sodium acetate 0.16M followed by three other precipitation steps under the same conditions.
# The percentage of modified bases is determined measuring the number of plasmid mols through UV spectrophotometry and the number of bound AAF mols, through βradioactivity counting.
# The result is expressed in percentage of modified bases. The reaction time is adapted as a function of the size of the plasmid and the desired percentage of modified bases.
# E. coli cells are transformed following the conventional electroporation method by using the conditions recommended by the device manufacturers to this end (Gene Pulser from Biorad for example).
# In the example, transformant clones are selected on a LB-agar medium containing kanamycin (20 μg/ml) and the lack of β-galactosidase activity (being expressed by white colonies instead of blue ones), i.e. a phenotype typical of a non reciprocal recombination event is visualized by means of the presence of X-gal (5-bromo-4-chloro-3-indolyl-β-D-galactopyranoside) and IPTG (isopropyl-β-D-thiogalactopyranoside) in the dishes.
smiles,measurement,setting,value
"CC(=O)ON(C(C)=O)c1ccc2c(c1)Cc1ccccc1-2 [N-AcO-AAF, N-acetoxy-2-acetylaminofluorene]",Recombination frequency: white colonies/total colonies,10 AAF injuries per plasmid,0.056
same,Total number of colonies/number of recombined colonies,10 AAF injuries per plasmid,17819/10
same,Recombination frequency: white colonies/total colonies,20 AAF injuries per plasmid,0.17
same,Total number of colonies/number of recombined colonies,20 AAF injuries per plasmid,9692/17
same,Recombination frequency: white colonies/total colonies,33 AAF injuries per plasmid,0.32
same,Total number of colonies/number of recombined colonies,33 AAF injuries per plasmid,2301975
same,Recombination frequency: white colonies/total colonies,43 AAF injuries per plasmid,1.41
same,Total number of colonies/number of recombined colonies,43 AAF injuries per plasmid,16554/237
same,targeted recombinant molecules,"67 AAF injuries on the plasmid, wild strain for recombination systems",more than 6%
same,Recombination frequency: white colonies/total colonies,67 AAF injuries per plasmid,6.07
same,Total number of colonies/number of recombined colonies,67 AAF injuries per plasmid,1934/125
same,increase in the recombination frequency,67 AAF injuries versus spontaneous events,"more than 1,700 fold"
same,frequency of homologous recombination events,67 molecules of N-AcO-AAF per molecule of the DNA vector,more than 600×10^−4
same,frequency of non reciprocal homologous recombination events from the DNA vector to the chromosome,N-AcO-AAF bound onto the polynucleotide,higher than 0.05 homologous recombination events per transfected cell
same,frequency of homologous recombination events,ten molecules of N-AcO-AAF per molecule of the DNA vector,5.61×10^−4
